Consider two compounds from patent EP2417971A1, “Clomiphene for use in increasing the chances of pregnancy of women having a low ovarian reserve” (Nitzschke, Markus, priority 2010, dated 2012).

For series [1], the system named is women with low ovarian reserve. Nature of the series: Case study: Clomiphene citrate from day 6 of the cycle to avoid pathological premature LH rise, followed by IVF. Type of series: in vivo, human. Here is the method: Women with low ovarian reserve take 50 mg oral Clomiphene Citrate every second day or 25 mg each day after the 6th day of the menstrual cycle until the follicle has reached a desired size of 18-20 mm. Subsequently ovulation is artificially triggered by the administration of GnRH (Gonadotropin releasing hormone) analogs, which is preferred, or human chorionic gonadotropin (HCG), 36-40 h after the administration of the ovulation inducing agent, the women had sexual intercourse. Alternatively, the ovum was obtained after 36 h and was fertilized in vitro in the lab.
A nulliparous person with 6 years of infertility had regular short cycles of 23 days. When they were younger, they had longer cycles of up to 29 days, but starting, their cycles became gradually shorter. […] When a vaginal ultrasound scan was performed that day, a follicle of 14 mm on the left ovary was found. […] Their spouse's semen analysis was normal. They had failed six cycles of gonadotrophins-IUI (intra-uterine inseminations) and 4 IVF attempts. The last two cycles had to be cancelled due to low response in a GnRH antagonist protocol with FSH injections of up to 450 IU per day. On day 7 of their cycle a hormonal assay and vaginal ultrasound scan were performed. […] The women came back two days later. The follicle was gone and an oral contraceptive pill (OCP) for 10 days was started in order to prevent follicle growth during luteal phase. Five days after the last OCP, menstrual bleeding started. No dominant follicle could be seen, serum estradiol was 32 pg/mL and FSH 14 IU/L.
The person was again examined on day 9 of their cycle. […] Since oocytes ovulated from follicles smaller than 16 mm are often of a poor quality and do seldom produce a pregnancy, it was refrained from trying to retrieve the egg this time. The person ovulated the next day.
The person was examined again on day 6 of their next cycle. They had 2 small follicles of 12mm and 11mm on their left ovary. Serum estradiol was 113 pg/mL, FSH 7.7 IU/L and LH 5.6 IU/L. In order to avoid another pathological premature LH rise on a small follicle this cycle, the person was treated with small doses of Clomiphene citrate, i.e. 50mg Clomiphene citrate on day 6, 8 and 10 of the cycle. On day 11 two follicles on the left ovarian was found with sizes of 19mm and 15mm. Serum estradiol was 621 pg/mL and LH […]. Ovulation induction with 0.2mg triptorelix was performed on the evening of the next day and an oocyte was retrieved 36 hours later. Two mature eggs could be retrieved, but only one oocyte could be fertilized by IVF. Vaginal progesterone treatment was started the day of the egg retrieval. The embryo was transferred at day 2. Two weeks later the pregnancy test was positive.

A further series deals with endometrium. More on the design: species or system human. Particulars: in vivo. The source says: Teramoto has therefore used Clomiphene, inter alia, to control the ovulation process in the course of an in vitro fertilization (IVF). To make use of both the stimulating and the inhibiting effect of Clomiphene, Teramoto et al had to administer Clomiphene right at the beginning of the menstrual cycle until the day of induction of ovulation, which is usually between the 10th and 12th day of said cycle. The stimulating effect occurs prior to the 6th cycle day, before a dominant follicle is selected, whereas the inhibiting effect starts on day six or seven after selection of the dominant follicle. However, as we observed, if Clomiphene is administered in the described manner, the growth of the endometrium is inhibited at the same time due to the anti-estrogenic effect of Clomiphene (blocking of the estrogen receptors) and thus the embryos should not be transferred in the same cycle, because implantation success rate is low. In order to increase the implantation success rate, the resulting embryos should be frozen and transferred in the next cycle where no Clomiphene medication is conducted.

Molecules are shown by their SMILES. “And” between values parts separate entries of the source, which are not always exact repeats. Equal entries are not always repeated. Structures can show the parent of a compound that is named as a salt.

For `CCN(CC)CCOc1ccc(C(=C(Cl)c2ccccc2)c2ccccc2)cc1` [Clomiphene citrate], the “oocytes fertilized by IVF” value in series [1] (of the two mature eggs retrieved) is “only one”. The follicle size in series [1] (person, 50mg Clomiphene citrate on day 6, 8 and 10 of the cycle, day 11, two follicles on the left ovary (12mm and 11mm on day 6)) was 19 mm and 15 mm. The compound further displayed a Serum estradiol in series [1] (person, 50mg on day 6, 8 and 10 of the cycle, measured on day 11 (113 pg/mL on day 6)) of 621 pg/mL. The LH in series [1] (person, 50mg on day 6, 8 and 10 of the cycle, measured on day 11 (5.6 IU/L on day 6)) worked out at 7.4 IU/L. In series [1] (retrieval 36 hours after ovulation induction with 0.2mg triptorelix on the evening of day 12), the mature eggs retrieved result is on record as “Two”. For the same compound, the pregnancy test result in series [1] (two weeks after embryo transfer at day 2, same cycle) is “positive”.
With `CCN(CC)CCOc1ccc(C(=C(Cl)c2ccccc2)c2ccccc2)cc1` [Clomiphene], the “growth of the endometrium” value with endometrium is listed as “inhibited”.
